Laboratory results: US10512652B2, “Use of cymanquine compounds as antimalarial agents” (priority 2015, dated 2019)
pEC50: −log10 of the molar value.

Key:
[1] = Cyclic voltammetry, anodic oxidation; type: physicochemical; conditions: irreversible, anodic peak potential, dichloromethane/0.05 M [NBu4][B(C6F5)4]
Description: Electrochemical studies were carried out. The electrolyte solution used for these studies, namely dichloromethane with 0.05 M [NBu4][B(C6F5)4] as the supporting electrolyte, is known to provide an optimum medium for the electrochemical oxidation of compounds containing the MnCp(CO)3 (Cp=η^5-C5H5) backbone (Laws et al., J. Am. Chem. Soc. 2008, 130, 9859). The potentials given here are referred to the ferrocene/ferrocenium reference couple. The experiments were carried out in a controlled atmosphere which minimizes exposure to oxygen and water. We refer to two types of standard electrochemical techniques that are commonly described in books on electrochemistry: cyclic voltammetry and bulk electrolysis (Bard, A. J.; Faulkner, L. R. Electrochemical Methods, John Wiley & Sons, New York, 2001, second edition) The former is useful for the analytical and gross mechanistic aspects of the electron-transfer properties of a compound, whereas the latter is most often employed for the electro-synthetic function of making isolable quantities of electrochemical oxidation or reduction products.
Anodic oxidation of the three compounds was investigated. […]
Table of potentials (vs ferrocene/ferrocenium (FcH)) measured by cyclic voltammetry for oxidation of compounds 3, 4, and 5 in dichloromethane/0.05 M [NBu4][B(C6F5)4]. […]

[2] = tested on: P. falciparum strain D10ydhod; assay: [3H]-hypoxanthine incorporation growth inhibition, strain D10ydhod; type: cell-based, Plasmodium falciparum; conditions: strain D10ydhod (expresses S. cerevisiae dihydroorotate dehydrogenase)
Description: (§1) P. falciparum strains were cultured under standard conditions in RPMI1640 medium supplemented with 0.5% Albumax in 90% N2, 5% 02 and 5% CO2. A modified version of the [^3H]-hypoxanthine incorporation method was employed for assessing growth inhibition by the inhibitor compounds. Briefly, P. falciparum strain Dd2 or strain D10ydhod (this strain express the Saccharomyces cerevisiae dihydroorotate dehydrogenase enzyme which renders mitochondrial electron transport nonessential in the parasite) parasites were seeded at 2% parasitemia in 96-well plates and treated with varying concentration of the inhibitors as well as the solvent (DMSO) for 24 h. [^3H]-Hypoxanthine was added to the cultures and incubation was continued for an additional 24 h. Incorporation of [^3H]-hypoxanthine by the parasites was determined by liquid scintillation. Growth inhibition was assessed as decrease in [^3H]-hypoxanthine incorporation in treated parasites relative to the control parasites treated with the solvent. The dose-response data were analyzed using nonlinear regression analysis (Prism GraphPad), and the EC50 was derived using an inhibitory sigmoid maximum effect (Emax) model. Each assay is completed in triplicate and the average EC50 was calculated. […]

[3] = tested on: P. falciparum strain Dd2; assay: [3H]-hypoxanthine incorporation growth inhibition, strain Dd2; type: cell-based, Plasmodium falciparum; conditions: multidrug resistant strain Dd2; 24 h treatment + 24 h [3H]-hypoxanthine; average of triplicate
Description: as §1

Substance: cymanquine [Compound 3]
- Ep(1) ([1]; first oxidation): 0.82 V vs FcH
- Ep(2) ([1]; second oxidation): 1.25 V vs FcH
- potency against strain D10ydhod compared with strain Dd2 [2]: Equivalent potency
- pEC50 [3]: ~7.97
